According to patent publication US4788181A, “5-substituted-2',3'-dideoxycytidine compounds with anti-HTLV-III activity” (priority 1986, dated 1988):
Entries after “also recorded” stand apart in the source; their conditions may differ. Read-outs that look alike come from different tables or passages of the source.

Legend:
HTLV-III/LAV [1] = details: cited from earlier work
[2] = Cytotoxicity to ATH8 cells cultured with the nucleoside (trypan blue viable cell count); type: cell-based; details: human
Description: (§1) ^b The percentage of cytotoxicity was determined by the following
(§2) 100 × [1 - (number of viable cells cultured in the presence of the
(§3) nucleoside)/(number of viable cells cultured alone)].
(§4) HTLV-III/LAV cytopathic effect assay was performed using ATH8 cells as previously described.* Briefly, 2×10^5 ATH8 cells were exposed to HTLV-IIIB virus (2,000 virus particles/cell) for 45 min after treatment with polybrene, resuspended in 2 ml of culture medium containing interleukin 2 in the presence or absence of various concentrations of compounds, and incubated in culture tubes at 37° C. in 5% CO2 /95% air humidifedd atmosphere. Control cells were treated similarly but were not exposed to the virus. At various time points on days 5 to 7 of culture, the total viable cells were counted in a hemocytometer by the trypan blue dye exclusion method.

[3] = Penetration of the blood-brain barrier / entry into the central nervous system
T4^+ lymphocytes = details: 0.5 and 5.0 micromoles; cited from earlier work
HTLV-III/LAV [4] = details: in vitro, cited from earlier work
[5] = water or body fluids; listed as ddA; cited from earlier work
HTLV-III/LAV [6] = assay: HTLV-III/LAV cytopathic effect assay using ATH8 cells (protective effect); type: cell-based, HTLV-IIIB; details: for protection (in words): 200 micromolar; for doses required for protection (in words): relative to other dideoxy nucleosides / ddC 1; for protective / anti-HTLV-III activity (in words): in vitro
Description: ^a The percentage of protective effect of a nucleoside was determined
by the following formula:
100 × [(number of viable cells exposed to HTLVIII and cultured in
the presence of the nucleoside) - (number of viable cells exposed to
HTLVII I cultured in the absence of the nucleoside)]/[(number of viable
cells cultured alone) - (number of viable cells exposed to HTLVIII in the
absence of the nucleoside)].
as §4

ATH8 cells = assay: Cytotoxicity to ATH8 cells cultured with the nucleoside (trypan blue viable cell count); type: cell-based; details: in vitro
Description: as §1, §2, §3, §4

Basicity and protonation = type: physicochemical; details: relative to 2',3'-dideoxycytidine
mouse fibroblasts = details: Cancer Research, 1975, 35, 1547-1554; cited from earlier work
reverse transcriptase = details: cited from earlier work
[7] = 5 μM, ATH8 cells, read-out: Cytotoxicity (%)
[8] = 10 μM, ATH8 cells, read-out: Cytotoxicity (%)
[9] = 50 μM, ATH8 cells, read-out: Cytotoxicity (%)
[10] = 200 μM, ATH8 cells, read-out: Cytotoxicity (%)
[11] = 0.5 μM, ATH8 cells, read-out: Cytotoxicity (%)

In the case of `Cc1cn([C@H]2C[C@H](N=[N+]=[N-])[C@@H](CO)O2)c(=O)[nH]c1=O` [AZT, 3-azido-3'-deoxythymidine], the “activity in test systems (in words)” value (HTLV-III/LAV [1]) is given as “a compound with activity in test systems”.
Work on `Nc1ccn([C@H]2CC[C@@H](CO)O2)c(=O)n1` [Compound 1, 2',3'-dideoxycytidine] yielded a cytotoxicity at 0.05 µM ([2]; ath8 cells) of 0%, a cytotoxicity at 0.5 µM ([2]; ath8 cells) of 0% and a cytotoxicity at 5 µM ([2]; ath8 cells) of 0%. For the same molecule, the cytotoxicity at 50 µM ([2]; ath8 cells) was 30%, the “penetration of the blood-brain barrier / entry into the central nervous system” value [3] was “enter the central nervous system, very poorly” and the “cytotoxicity (in words)” value (T4^+ lymphocytes) was “non-cytotoxic”. The “protection against the cytopathic effects of HTLV-III/LAV (in words)” value (shortened to “protection … of HTLV-III/LAV (in words)”) (HTLV-III/LAV [4]) was “most potent member of the group on the basis of molarity” and the “protection … of HTLV-III/LAV (in words)” value (HTLV-III/LAV [4]; listed as ddC) was “potent protective agent; also recorded: very effective”.
For `Nc1ncnc2c1ncn2[C@H]1CC[C@@H](CO)O1` [Compound 2], the cytotoxicity at 1 µM ([2]; ATH8 cells) was 0%, the cytotoxicity at 5 µM [2, 7] was 6% and the cytotoxicity at 10 µM [2, 8] was 0%. The cytotoxicity at 50 µM [2, 9] was 0%, the cytotoxicity at 100 µM ([2]; ATH8 cells) was 0% and the cytotoxicity at 200 µM [2, 10] was 0%. For the same molecule, the “solubility (in words)” value [5] was “relatively insoluble; also recorded: not very soluble in water or body fluids” and the “protection … of HTLV-III/LAV (in words)” value (HTLV-III/LAV [4]) was “very effective”.
`Cc1cn([C@H]2CC[C@@H](CO)O2)c(=O)[nH]c1=O` [Compound 3, dideoxythymidine] gave a cytotoxicity at 10 µM [2, 8] of 8%, a cytotoxicity at 50 µM [2, 9] of 8% and a cytotoxicity at 100 µM ([2]; ATH8 cells) of 13%. It also gave a cytotoxicity at 200 µM [2, 10] of 6%, a cytotoxicity at 500 µM ([2]; 500 μM, ATH8 cells) of 30% and a cytotoxicity at 1000 µM ([2]; 1000 μM, ATH8 cells) of 40%. The cytotoxicity at 2000 µM ([2]; 2000 μM, ATH8 cells) was 53%, the “protection (in words)” value (HTLV-III/LAV [6]) was “considerable protection” and the inhibition at 10 µM (HTLV-III/LAV [6]; Human immunodeficiency virus 1, ATH-8, 10 μM, ATH8 cells, days 5 to 7) was 3%. For the same molecule, the “doses required for protection (in words)” value (HTLV-III/LAV [6]) was “unusually high doses”.
`Nc1ncn([C@H]2CC[C@@H](CO)O2)c(=O)n1` [Compound 10, 2',3'-Dideoxy-5-azacytidine] gave a cytotoxicity at 1 µM ([2]; ATH8 cells) of 13%, a cytotoxicity at 10 µM [2, 8] of 19% and a cytotoxicity at 50 µM [2, 9] of 62%. For the same molecule, the “cytotoxicity (in words)” value (ATH8 cells) was “clearly more cytotoxic than ddC” and the “anti-HTLV-III activity (in words)” value (HTLV-III/LAV [6]; 10 micromolar) was “significant anti-HTLV-III activity”.
`Cc1cn([C@H]2CC[C@@H](CO)O2)c(=O)nc1N` [Compound 15, 2',3'-Dideoxy-5-methylcytidine] gave an MCC ([2]; ath8 cells, read-out: concentration at which toxicity began to show) of 100 µM, a cytotoxicity at 2 µM ([2]; ATH8 cells) of 23% and a cytotoxicity at 10 µM [2, 8] of 27%. For the same molecule, the cytotoxicity at 100 µM ([2]; ATH8 cells) was 44% and the “protective / anti-HTLV-III activity (in words)” value (HTLV-III/LAV [6]) was “devoid of protective effects”.
With `Cc1cn([C@H]2C[C@H](O)[C@@H](CO)O2)c(=O)nc1N` [Compound 16, 5-methyl-2'-deoxycytidine] the “cytotoxicity (in words)” value (ATH8 cells) was “neither protective nor cytotoxic” and the “protective / anti-HTLV-III activity (in words)” value (HTLV-III/LAV [6]) was “neither protective nor cytotoxic”.
Work on `Nc1nc(=O)n([C@H]2CC[C@@H](CO)O2)cc1Br` [Compound 17, 2',3'-Dideoxy-5-bromocytidine] yielded a cytotoxicity at 1 µM ([2]; ATH8 cells) of 14%, a cytotoxicity at 10 µM [2, 8] of 14% and a cytotoxicity at 30 µM ([2]; 30 μM, ATH8 cells) of 2%. For the same molecule, the cytotoxicity at 200 µM [2, 10] was 0%, the “cytotoxicity (in words)” value (ATH8 cells) was “neither protective nor cytotoxic” and the “protective / anti-HTLV-III activity (in words)” value (HTLV-III/LAV [6]) was “neither protective nor cytotoxic”.
With `Nc1nc(=O)n([C@H]2CC[C@@H](CO)O2)cc1F` [Compound 22, 2',3'-Dideoxy-5-fluorocytidine] the cytotoxicity at 0.05 µM ([2]; 0.05 μM, ATH8 cells, read-out: Cytotoxicity (%)) was 5%, the cytotoxicity at 0.5 µM [2, 11] was 0% and the cytotoxicity at 5 µM [2, 7] was 0%. The cytotoxicity at 50 µM [2, 9] was 9%, the inhibition at 0.05 µM (HTLV-III/LAV [6]; Human immunodeficiency virus 1, ATH-8, 0.05 μM, ATH8 cells, days 5 to 7) was 5% and the “protective / anti-HTLV-III activity (in words)” value (HTLV-III/LAV [6]) was “as protective of HTLV-III infected cells as the lead compound 1”. For the same molecule, the “penetration of the blood-brain barrier / entry into the central nervous system” value [3] was “penetrate the blood-brain barrier”, the basicity (Basicity and protonation) was “less basic than the parent compound” and the protonation (Basicity and protonation) was “less protonated than the parent compound”.
In the case of `Nc1ccn([C@H]2CC[C@@H](COP(=O)(O)O)O2)c(=O)n1` [Compound 24], the cytotoxicity at 0.5 µM [2, 11] is reported as 0%, the cytotoxicity at 2 µM ([2]; ATH8 cells) is reported as 7% and the cytotoxicity at 10 µM [2, 8] is reported as 0%. The “doses required for protection (in words)” value (HTLV-III/LAV [6]) was “significant protection was beginning to be observed at doses approximately ten times higher than were required for activity with ddC 1”.
For `Nc1ncnc2c1ncn2[C@H]1CC[C@@H](COP(=O)(O)O)O1` [Compound 25, 2',3'-dideoxyadenosine-5'-phosphate], the cytotoxicity at 1 µM ([2]; ATH8 cells) was 2%, the cytotoxicity at 5 µM [2, 7] was 10% and the cytotoxicity at 10 µM [2, 8] was 6%. It also gave a cytotoxicity at 50 µM [2, 9] of 4%, a cytotoxicity at 100 µM ([2]; ATH8 cells) of 0% and a cytotoxicity at 200 µM [2, 10] of 5%. The inhibition at 1 µM (HTLV-III/LAV [6]; Human immunodeficiency virus 1, ATH-8, 1 μM, ATH8 cells, days 5 to 7) was 25%, the “protective / anti-HTLV-III activity (in words)” value (HTLV-III/LAV [6]) was “just as active as the nucleoside 2, over a wide concentration range” and the “potency of ddAMP relative to ddA (in words)” value (HTLV-III/LAV [6]; low concentrations) was “not more potent at low concentrations”. The “cytotoxicity in mouse fibroblasts (in words)” value (mouse fibroblasts) was “cytotoxic consequences” and the “entry into mouse fibroblasts” value (mouse fibroblasts) was “appeared to enter mouse fibroblasts intact”.
Work on `Cc1cn([C@H]2CC[C@@H](COP(=O)(O)O)O2)c(=O)[nH]c1=O` [Compound 26] yielded a cytotoxicity at 10 µM ([2]; ath8 cells) of 9%, a cytotoxicity at 50 µM ([2]; ath8 cells) of 9% and a cytotoxicity at 200 µM ([2]; ath8 cells) of 10%. The “protection (in words)” value (HTLV-III/LAV [6]) was “essentially inactive”.
For `O=C(O)P(=O)(O)O` [foscarnet], the “inhibition of reverse transcriptase (in words)” value (shortened to “inhibition … (in words)”) (reverse transcriptase) is given as “inhibit this enzyme”.
In the case of `NC(=O)c1ncn([C@@H]2O[C@H](CO)[C@@H](O)[C@H]2O)n1` [ribavirin], the “inhibition … (in words)” value (reverse transcriptase) is listed as “inhibit this enzyme”.
For `Cc1ccc(C(=O)Nc2ccc(S(=O)(=O)O)c3cc(S(=O)(=O)O)cc(S(=O)(=O)O)c23)cc1NC(=O)c1cccc(NC(=O)Nc2cccc(C(=O)Nc3cc(C(=O)Nc4ccc(S(=O)(=O)O)c5cc(S(=O)(=O)O)cc(S(=O)(=O)O)c45)ccc3C)c2)c1` [suramin], the “inhibition … (in words)” value (reverse transcriptase) is given as “inhibit this enzyme”.
